≈ marks a conversion by molar mass, not a printed value.
Tests used:
S. pyogenes (ATCC 51339) = test: Bacterial assay: MIC against S. pyogenes; format: cell-based, Streptococcus pyogenes; settings: Streptococcus pyogenes, ATCC51339, read-out: minimal inhibitory concentration (MIC)
S. aureus (ATCC 29213) = test: Bacterial assay: MIC against S. aureus; format: cell-based, Staphylococcus aureus; settings: Staphylococcus aureus, ATCC29213, read-out: minimal inhibitory concentration (MIC)

In the case of CCNC(=O)Nc1nc2cc(-c3cnc(C(C)O)nc3)cc(-c3nccc(N4CC(O)C4)n3)c2s1 (stereo not drawn) [Compound 105, 1-ethyl-3-[7-[4-(3-hydroxyazetidin-1-yl)pyrimidin-2-yl]-5-[2-(1-hydroxyethyl)pyrimidin-5-yl]-1,3-benzothiazol-2-yl]urea], the MIC (S. pyogenes (ATCC 51339)) is reported as ≤ 1 µg/mL and the MIC (S. aureus (ATCC 29213)) is reported as 16 µg/mL (≈ 32.5 µM).

CCNC(=O)Nc1nc2cc(-c3cnc(C(C)O)nc3)cc(-c3ncc(F)c(N4CCOCC4)n3)c2s1 (stereo not drawn) [Compound 106, 1-ethyl-3-[7-(5-fluoro-4-morpholino-pyrimidin-2-yl)-5-[2-(1-hydroxyethyl)pyrimidin-5-yl]-1,3-benzothiazol-2-yl]urea] was tested, and the MIC (S. pyogenes (ATCC 51339)) was ≤ 1 µg/mL and the MIC (S. aureus (ATCC 29213)) was ≤ 1 µg/mL.

In the case of CCNC(=O)Nc1nc2cc(-c3cnc(C(C)(C)O)nc3)cc(-c3nccc(N4CCN(CCOC)CC4)n3)c2s1 [Compound 107, 1-ethyl-3-[5-[2-(1-hydroxy-1-methyl-ethyl)pyrimidin-5-yl]-7-[4-[4-(2-methoxyethyl)piperazin-1-yl]pyrimidin-2-yl]-1,3-benzothiazol-2-yl]urea], the MIC (S. pyogenes (ATCC 51339)) is reported as ≤ 1 µg/mL and the MIC (S. aureus (ATCC 29213)) is reported as ≤ 1 µg/mL.

With CCNC(=O)Nc1nc2cc(-c3ccc(C(O)C(F)(F)F)nc3)cc(-c3cc(CN4CCOCC4)ccn3)c2s1 (stereo not drawn) [Compound 108, 1-ethyl-3-[7-[4-(morpholinomethyl)-2-pyridyl]-5-[6-(2,2,2-trifluoro-1-hydroxy-ethyl)-3-pyridyl]-1,3-benzothiazol-2-yl]urea] the MIC (S. pyogenes (ATCC 51339)) was ≤ 1 µg/mL and the MIC (S. aureus (ATCC 29213)) was ≤ 1 µg/mL.

For CCNC(=O)Nc1nc2cc(-c3cnc(C(C)O)nc3)cc(-c3cc(N4CCC(C)(C(=O)O)CC4)ncn3)c2s1 (stereo not drawn) [Compound 109, 1-[6-[2-(ethylcarbamoylamino)-5-[2-(1-hydroxyethyl)pyrimidin-5-yl]-1,3-benzothiazol-7-yl]pyrimidin-4-yl]-4-methyl-piperidine-4-carboxylic acid], the MIC (S. pyogenes (ATCC 51339)) was ≤ 1 µg/mL and the MIC (S. aureus (ATCC 29213)) was 2 µg/mL (≈ 3.55 µM).

For CCNC(=O)Nc1nc2cc(-c3cnc(C(C)(C)O)nc3)cc(-c3cc(N4CCC(C(=O)O)CC4)ccn3)c2s1 [Compound 110, 1-[2-[2-(ethylcarbamoylamino)-5-[2-(1-hydroxy-1-methyl-ethyl)pyrimidin-5-yl]-1,3-benzothiazol-7-yl]-4-pyridyl]piperidine-4-carboxylic acid], the MIC (S. pyogenes (ATCC 51339)) was ≤ 1 µg/mL and the MIC (S. aureus (ATCC 29213)) was 2 µg/mL (≈ 3.56 µM).

With CCNC(=O)Nc1nc2cc(-c3cnc(C(C)O)nc3)cc(-c3cc(CN4CCC5(CC4)COC5)ccn3)c2s1 (stereo not drawn) [Compound 112, 1-ethyl-3-[5-[2-(1-hydroxyethyl)pyrimidin-5-yl]-7-[4-(2-oxa-7-azaspiro[3.5]nonan-7-ylmethyl)-2-pyridyl]-1,3-benzothiazol-2-yl]urea] the MIC (S. pyogenes (ATCC 51339)) was ≤ 1 µg/mL and the MIC (S. aureus (ATCC 29213)) was ≤ 1 µg/mL.

For CCNC(=O)Nc1nc2cc(-c3cnc(C(C)O)nc3)cc(-c3nccc(N4CCC(C)(C(=O)O)CC4)n3)c2s1 (stereo not drawn) [Compound 117, 1-[2-[2-(ethylcarbamoylamino)-5-[2-(1-hydroxyethyl)pyrimidin-5-yl]-1,3-benzothiazol-7-yl]pyrimidin-4-yl]-4-methyl-piperidine-4-carboxylic acid], the MIC (S. pyogenes (ATCC 51339)) was ≤ 1 µg/mL and the MIC (S. aureus (ATCC 29213)) was 16 µg/mL (≈ 28.4 µM).

In the case of CCNC(=O)Nc1nc2cc(-c3cnc(C(C)(C)O)nc3)cc(-c3ncc(CN4CCOCC4)cn3)c2s1 [Compound 120, 1-ethyl-3-[5-[2-(1-hydroxy-1-methyl-ethyl)pyrimidin-5-yl]-7-[5-(morpholinomethyl)pyrimidin-2-yl]-1,3-benzothiazol-2-yl]urea], the MIC (S. pyogenes (ATCC 51339)) is reported as ≤ 1 µg/mL and the MIC (S. aureus (ATCC 29213)) is reported as ≤ 1 µg/mL.

In the case of CCNC(=O)Nc1nc2cc(-c3cnc(C4(O)CCN(C)CC4)nc3)cc(-c3ccccn3)c2s1 [Compound 128, 1-ethyl-3-[5-[2-(4-hydroxy-1-methyl-4-piperidyl)pyrimidin-5-yl]-7-(2-pyridyl)-1,3-benzothiazol-2-yl]urea], the MIC (S. pyogenes (ATCC 51339)) is reported as ≤ 1 µg/mL and the MIC (S. aureus (ATCC 29213)) is reported as ≤ 1 µg/mL.

In the case of CCNC(=O)Nc1nc2cc(-c3cnc(C(C)(C)O)nc3)c(NCCOC)cc2s1 [Compound 150, 1-ethyl-3-[5-[2-(1-hydroxy-1-methyl-ethyl)pyrimidin-5-yl]-6-(2-methoxyethylamino)-1,3-benzothiazol-2-yl]urea], the MIC (S. pyogenes (ATCC 51339)) is reported as 8 µg/mL (≈ 18.6 µM) and the MIC (S. aureus (ATCC 29213)) is reported as 2 µg/mL (≈ 4.65 µM).

Work on CCNC(=O)Nc1nc2cc(-c3cnc(C(C)(C)O)nc3)cc(N3CCOCC3)c2s1 [Compound 151, 1-ethyl-3-[5-[2-(1-hydroxy-1-methyl-ethyl)pyrimidin-5-yl]-7-morpholino-1,3-benzothiazol-2-yl]urea] yielded an MIC (S. pyogenes (ATCC 51339)) of 2 µg/mL (≈ 4.52 µM) and an MIC (S. aureus (ATCC 29213)) of 2 µg/mL (≈ 4.52 µM).

In the case of CCNC(=O)Nc1nc2cc(-c3cnc(C(C)(C)O)nc3)cc(-c3cc(CN4CCC(F)(F)CC4)ccn3)c2s1 [Compound 156, 1-[7-[4-[(4,4-difluoro-1-piperidyl)methyl]-2-pyridyl]-5-[2-(1-hydroxy-1-methyl-ethyl)pyrimidin-5-yl]-1,3-benzothiazol-2-yl]-3-ethyl-urea], the MIC (S. pyogenes (ATCC 51339)) is reported as ≤ 1 µg/mL and the MIC (S. aureus (ATCC 29213)) is reported as ≤ 1 µg/mL.

For CCNC(=O)Nc1nc2cc(-c3cnc(C(C)(C)O)nc3)cc(-c3cc(CN4CCN(C)CC4)ccn3)c2s1 [Compound 159, 1-ethyl-3-[5-[2-(1-hydroxy-1-methyl-ethyl)pyrimidin-5-yl]-7-[4-[(4-methylpiperazin-1-yl)methyl]-2-pyridyl]-1,3-benzothiazol-2-yl]urea], the MIC (S. pyogenes (ATCC 51339)) was ≤ 1 µg/mL and the MIC (S. aureus (ATCC 29213)) was 2 µg/mL (≈ 3.66 µM).

CCNC(=O)Nc1nc2cc(-c3cnc(C4(O)CN(C(=O)OC(C)(C)C)C4)nc3)cc(-c3ccccn3)c2s1 [Compound 162, tert-butyl 3-[5-[2-(ethylcarbamoylamino)-7-(2-pyridyl)-1,3-benzothiazol-5-yl]pyrimidin-2-yl]-3-hydroxy-azetidine-1-carboxylate] was tested, and the MIC (S. pyogenes (ATCC 51339)) was ≤ 1 µg/mL and the MIC (S. aureus (ATCC 29213)) was ≤ 1 µg/mL.

With CCNC(=O)Nc1nc2cc(-c3cnc(C(C)(C)O)nc3)cc(-c3cc(CN4C[C@@H](C)O[C@@H](C)C4)ccn3)c2s1 [Compound 164, 1-[7-[4-[[(2R,6S)-2,6-dimethylmorpholin-4-yl]methyl]-2-pyridyl]-5-[2-(1-hydroxy-1-methyl-ethyl)pyrimidin-5-yl]-1,3-benzothiazol-2-yl]-3-ethyl-urea] the MIC (S. pyogenes (ATCC 51339)) was ≤ 1 µg/mL and the MIC (S. aureus (ATCC 29213)) was ≤ 1 µg/mL.

CCNC(=O)Nc1nc2cc(-c3cnc(C4(O)CCNCC4)nc3)cc(-c3ccccn3)c2s1 [Compound 174, 1-ethyl-3-[5-[2-(4-hydroxy-4-piperidyl)pyrimidin-5-yl]-7-(2-pyridyl)-1,3-benzothiazol-2-yl]urea] showed an MIC (S. pyogenes (ATCC 51339)) of 2 µg/mL (≈ 4.21 µM) and an MIC (S. aureus (ATCC 29213)) of 8 µg/mL (≈ 16.8 µM).

With CCNC(=O)Nc1nc2cc(-c3cnc(C(C)(C)O)nc3)c(OC)cc2s1 [Compound 176, 1-ethyl-3-[5-[2-(1-hydroxy-1-methyl-ethyl)pyrimidin-5-yl]-6-methoxy-1,3-benzothiazol-2-yl]urea] the MIC (S. pyogenes (ATCC 51339)) was ≤ 1 µg/mL and the MIC (S. aureus (ATCC 29213)) was ≤ 1 µg/mL.

For CCNC(=O)Nc1nc2cc(-c3cnc(C(C)(C)O)nc3)c(F)cc2s1 [Compound 177, 1-ethyl-3-[6-fluoro-5-[2-(1-hydroxy-1-methyl-ethyl)pyrimidin-5-yl]-1,3-benzothiazol-2-yl]urea], the MIC (S. pyogenes (ATCC 51339)) was 2 µg/mL (≈ 5.33 µM) and the MIC (S. aureus (ATCC 29213)) was ≤ 1 µg/mL.

For CCNC(=O)Nc1nc2cc(-c3cnc(C(C)(C)O)nc3)c(OCC3CC3)cc2s1 [Compound 182, 1-[6-(cyclopropylmethoxy)-5-[2-(1-hydroxy-1-methyl-ethyl)pyrimidin-5-yl]-1,3-benzothiazol-2-yl]-3-ethyl-urea], the MIC (S. pyogenes (ATCC 51339)) was ≤ 1 µg/mL and the MIC (S. aureus (ATCC 29213)) was ≤ 1 µg/mL.

CCNC(=O)Nc1nc2cc(-c3cnc(C(C)(C)O)nc3)c(OCCOC)cc2s1 [Compound 183, 1-ethyl-3-[5-[2-(1-hydroxy-1-methyl-ethyl)pyrimidin-5-yl]-6-(2-methoxyethoxy)-1,3-benzothiazol-2-yl]urea] was tested, and the MIC (S. pyogenes (ATCC 51339)) was ≤ 1 µg/mL and the MIC (S. aureus (ATCC 29213)) was ≤ 1 µg/mL.

— patent publication US20170260178A1 (SPERO GYRASE, INC., priority 2012, published 2017)
